Results from ChEMBL document CHEMBL1201862, “PubChem BioAssay data set” (2004).
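Where inhibition never reached the appropriate level, the endpoint shown equals the highest concentration tested. Otherwise, values were interpolated linearly from a five-concentration, 48-hour dose response in 96-well plates. GI50 is the concentration that inhibits growth by half.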 The source made the active and inactive calls. No stated cut-off is given here; in the data, active = GI50 up to about 1.1 µM and inactive = higher.

Assays:
Experiment in all cases: NCI anticancer screen, dose series, 48 h
MDA-MB-231 = tested on: MDA-MB-231
CAKI-1 = tested on: CAKI-1
SR = tested on: SR
SNB-75 = tested on: SNB-75
SK-MEL-28 = tested on: SK-MEL-28
BT-549 = tested on: BT-549
SK-MEL-5 = tested on: SK-MEL-5
A498 = tested on: A498
SK-OV-3 = tested on: SK-OV-3
A549 = tested on: A549
OVCAR-5 = tested on: OVCAR-5
SK-MEL-2 = tested on: SK-MEL-2
OVCAR-4 = tested on: OVCAR-4
HCC 2998 = tested on: HCC 2998
HOP-62 = tested on: HOP-62
MDA-N = tested on: MDA-N
NCI/ADR-RES = tested on: NCI/ADR-RES
UACC-62 = tested on: UACC-62
LOX IMVI = tested on: LOX IMVI
SF-268 = tested on: SF-268

SMILES | GI50 (MDA-MB-231) | GI50 (CAKI-1) | GI50 (SR) | GI50 (SNB-75) | GI50 (SK-MEL-28) | GI50 (BT-549) | GI50 (SK-MEL-5) | GI50 (A498) | GI50 (SK-OV-3) | GI50 (A549) | GI50 (OVCAR-5) | GI50 (SK-MEL-2) | GI50 (OVCAR-4) | GI50 (HCC 2998) | GI50 (HOP-62) | GI50 (MDA-N) | GI50 (NCI/ADR-RES) | GI50 (UACC-62) | GI50 (LOX IMVI) | GI50 (SF-268)
O=C1c2ccccc2-c2c1c1ccccc1c(=O)n2-c1ccccc1 | 9.66 µM (inactive) | 11.8 µM (inactive) | > 100 µM (inactive) | 13.1 µM (inactive) | > 100 µM (inactive) | 14.4 µM (inactive) | 9.66 µM (inactive) | 16.6 µM (inactive) | 13.2 µM (inactive) | 13.1 µM (inactive) | 45.5 µM (inactive) | 20.4 µM (inactive) | 2.86 µM (inactive) | 66.4 µM (inactive) | 4.26 µM (inactive) | > 79.1 µM (inactive) | 5.48 µM (inactive) | 11.1 µM (inactive) | 68.5 µM (inactive) | 9.1 µM (inactive)
COc1ccccc1C1c2cc3c(cc2OC2(OC)COC(=O)C12)OCO3 (stereo not given) | 18.2 µM (inactive) | 20 µM (inactive) | 3.8 µM (inactive) | 7.16 µM (inactive) | 7.53 µM (inactive) | 17.9 µM (inactive) | 7.19 µM (inactive) | 6.59 µM (inactive) | 18.8 µM (inactive) | 17.4 µM (inactive) | 44.1 µM (inactive) | 7.43 µM (inactive) | 19.1 µM (inactive) | 14.9 µM (inactive) | 22.2 µM (inactive) | 2.24 µM (inactive) | 6.55 µM (inactive) | 6.04 µM (inactive) | 9.02 µM (inactive) | 14.3 µM (inactive)
CC[C@@]1(O)C(=O)OCc2c1cc1n(c2=O)Cc2c-1nc1ccccc1c2/C=N\NC(=O)C(N)CS (stereo not given in full) | 78.9 µM (inactive) | 0.495 µM (active) | 0.0373 µM (active) | 0.573 µM (active) | 5.5 µM (inactive) | 10.8 µM (inactive) | 1.13 µM (inactive) | 2.55 µM (inactive) | 1.91 µM (inactive) | 2 µM (inactive) | 17.3 µM (inactive) | 46.3 µM (inactive) | 53.2 µM (inactive) | 9.46 µM (inactive) | 0.295 µM (active) | 9.4 µM (inactive) | 1.71 µM (inactive) | 0.0614 µM (active) | 0.454 µM (active) | 0.186 µM (active)
c1ccc(C2=Nn3c(CCCCCCCCc4nnc5n4N=C(c4ccccc4)CS5)nnc3SC2)cc1 | 22.9 µM (inactive) | 41.2 µM (inactive) | > 68.5 µM (inactive) | 14.5 µM (inactive) | > 100 µM (inactive) | > 57.7 µM (inactive) | > 100 µM (inactive) | 39.1 µM (inactive) | 25.9 µM (inactive) | > 100 µM (inactive) | > 75.9 µM (inactive) | 32.1 µM (inactive) | > 100 µM (inactive) | > 100 µM (inactive) | 17.4 µM (inactive) | > 100 µM (inactive) | > 79.8 µM (inactive) | 46.8 µM (inactive) | 45.4 µM (inactive) | 23.1 µM (inactive)
COc1cccc(CCn2c(N)c(-c3ccccc3)c3ccc([N+](=O)[O-])cc3c2=O)c1 | 8.45 µM (inactive) | 6.3 µM (inactive) | 6.61 µM (inactive) | 2.99 µM (inactive) | 17.5 µM (inactive) | 1.61 µM (inactive) | 5.93 µM (inactive) | 1.82 µM (inactive) | 5.07 µM (inactive) | 9.62 µM (inactive) | 14.3 µM (inactive) | 16.7 µM (inactive) | 1.79 µM (inactive) | 11.1 µM (inactive) | 6.56 µM (inactive) | 17.5 µM (inactive) | 1.9 µM (inactive) | 11.9 µM (inactive) | 2.43 µM (inactive) | 16.2 µM (inactive)
O=S(=O)(NNc1ccccc1)c1ccccc1 | 1.36 µM (inactive) | 1.28 µM (inactive) | 11.2 µM (inactive) | 40 µM (inactive) | 48.2 µM (inactive) | 19.2 µM (inactive) | 2.1 µM (inactive) | 81.5 µM (inactive) | 65.3 µM (inactive) | 8.87 µM (inactive) | 17.1 µM (inactive) | 3.26 µM (inactive) | 2.62 µM (inactive) | 0.902 µM (active) | 12.4 µM (inactive) | 12.2 µM (inactive) | 10 µM (inactive) | 0.481 µM (active) | 0.834 µM (active) | 38.5 µM (inactive)
N=c1ccn2c(n1)OC1C(OP(=O)(O)O)C(CO)OC12 (stereo not given) | > 100 µM (inactive) | > 24.5 µM (inactive) | 3.12 µM (inactive) | > 88.3 µM (inactive) | > 83.4 µM (inactive) | > 100 µM (inactive) | 55.1 µM (inactive) | 10.8 µM (inactive) | > 53.6 µM (inactive) | 0.575 µM (active) | > 100 µM (inactive) | > 100 µM (inactive) | > 100 µM (inactive) | 11 µM (inactive) | 1.21 µM (inactive) | > 83.9 µM (inactive) | 22.5 µM (inactive) | 10.4 µM (inactive) | 4.52 µM (inactive) | 99.5 µM (inactive)
